Assay results taken from ChEMBL document CHEMBL1147112 (2007).
≈ marks a conversion by molar mass, not a printed value. Calls of active or inactive are those of the source. The calls are words filed in the database; no cut-off is given here.

Tests used:
Staphylococcus aureus [1] = experiment: Antimicrobial activity against methicillin-susceptible Staphylococcus aureus ATCC 29213 in human monocyte-derived macrophages at 2.5 ug/ml assessed as bacterial viability after 4 hrs; assay type: functional
Staphylococcus aureus [2] = experiment: Antimicrobial activity against methicillin-susceptible Staphylococcus aureus ATCC 29213 in human monocyte-derived macrophages at 2.5 ug/ml assessed as bacterial viability after 24 hrs; assay type: functional
Staphylococcus aureus [3] = experiment: Antimicrobial activity against methicillin-susceptible Staphylococcus aureus ATCC 29213 in human monocyte-derived macrophages at 5 ug/ml assessed as bacterial viability after 2 hrs; assay type: functional
Staphylococcus aureus [4] = experiment: Antimicrobial activity against methicillin-susceptible Staphylococcus aureus ATCC 29213 in human monocyte-derived macrophages at 5 ug/ml assessed as bacterial viability after 4 hrs; assay type: functional
Staphylococcus aureus [5] = experiment: Antimicrobial activity against methicillin-resistant Staphylococcus aureus ATCC 43300 in human monocyte-derived macrophages at 2.5 ug/ml assessed as bacterial viability after 2 hrs; assay type: functional
Staphylococcus aureus [6] = experiment: Antimicrobial activity against methicillin-resistant Staphylococcus aureus ATCC 43300 in human monocyte-derived macrophages at 2.5 ug/ml assessed as bacterial viability after 4 hrs; assay type: functional
Staphylococcus aureus [7] = experiment: Antimicrobial activity against methicillin-resistant Staphylococcus aureus ATCC 43300 in human monocyte-derived macrophages at 2.5 ug/ml assessed as bacterial viability after 24 hrs; assay type: functional
Staphylococcus aureus [8] = experiment: Antimicrobial activity against methicillin-resistant Staphylococcus aureus ATCC 43300 in human monocyte-derived macrophages at 5 ug/ml assessed as bacterial viability after 2 hrs; assay type: functional
Staphylococcus aureus [9] = experiment: Antimicrobial activity against methicillin-resistant Staphylococcus aureus ATCC 43300 in human monocyte-derived macrophages at 5 ug/ml assessed as bacterial viability after 4 hrs; assay type: functional
Staphylococcus aureus [10] = experiment: Antimicrobial activity against methicillin-resistant Staphylococcus aureus ATCC 43300 in human monocyte-derived macrophages at 5 ug/ml assessed as bacterial viability after 24 hrs; assay type: functional
Staphylococcus aureus [11] = experiment: Antimicrobial activity against methicillin-susceptible Staphylococcus aureus ATCC 29213 in human monocyte-derived macrophages at 0.25 ug/ml assessed as bacterial viability after 2 hrs; assay type: functional
Staphylococcus aureus [12] = experiment: Antimicrobial activity against methicillin-susceptible Staphylococcus aureus ATCC 29213 in human monocyte-derived macrophages at 0.25 ug/ml assessed as bacterial viability after 4 hrs; assay type: functional
Staphylococcus aureus [13] = experiment: Antimicrobial activity against methicillin-susceptible Staphylococcus aureus ATCC 29213 in human monocyte-derived macrophages at 0.25 ug/ml assessed as bacterial viability after 24 hrs; assay type: functional
Staphylococcus aureus [14] = experiment: Antimicrobial activity against methicillin-susceptible Staphylococcus aureus ATCC 29213 in human monocyte-derived macrophages at 0.5 ug/ml assessed as bacterial viability after 2 hrs; assay type: functional
Staphylococcus aureus [15] = experiment: Antimicrobial activity against methicillin-susceptible Staphylococcus aureus ATCC 29213 in human monocyte-derived macrophages at 0.5 ug/ml assessed as bacterial viability after 4 hrs; assay type: functional
Staphylococcus aureus [16] = experiment: Antimicrobial activity against methicillin-susceptible Staphylococcus aureus ATCC 29213 in human monocyte-derived macrophages at 0.5 ug/ml assessed as bacterial viability after 24 hrs; assay type: functional
Staphylococcus aureus [17] = experiment: Antimicrobial activity against methicillin-resistant Staphylococcus aureus ATCC 43300; assay type: functional
Staphylococcus aureus [18] = experiment: Antimicrobial activity against methicillin-susceptible Staphylococcus aureus ATCC 29213; assay type: functional
Staphylococcus aureus [19] = experiment: Antimicrobial activity against methicillin-resistant Staphylococcus aureus 8111; assay type: functional
Staphylococcus aureus [20] = experiment: Antimicrobial activity against methicillin-resistant Staphylococcus aureus ATCC 43300 in human monocyte-derived macrophages at 0.25 ug/ml assessed as bacterial viability after 2 hrs; assay type: functional
Staphylococcus aureus [21] = experiment: Antimicrobial activity against methicillin-resistant Staphylococcus aureus ATCC 43300 in human monocyte-derived macrophages at 0.25 ug/ml assessed as bacterial viability after 24 hrs; assay type: functional
Staphylococcus aureus [22] = experiment: Antimicrobial activity against methicillin-resistant Staphylococcus aureus ATCC 43300 in human monocyte-derived macrophages at 0.5 ug/ml assessed as bacterial viability after 2 hrs; assay type: functional
Staphylococcus aureus [23] = experiment: Antimicrobial activity against methicillin-resistant Staphylococcus aureus ATCC 43300 in human monocyte-derived macrophages at 0.5 ug/ml assessed as bacterial viability after 4 hrs; assay type: functional
Staphylococcus aureus [24] = experiment: Antimicrobial activity against methicillin-resistant Staphylococcus aureus ATCC 43300 in human monocyte-derived macrophages at 0.5 ug/ml assessed as bacterial viability after 24 hrs; assay type: functional
Staphylococcus aureus [25] = experiment: Antimicrobial activity against methicillin-susceptible Staphylococcus aureus ATCC 29213 in human monocyte-derived macrophages at 5 ug/ml assessed as bacterial viability after 24 hrs; assay type: functional
Staphylococcus aureus [26] = experiment: Antimicrobial activity against methicillin-susceptible Staphylococcus aureus ATCC 29213 in human monocyte-derived macrophages at 2.5 ug/ml assessed as bacterial viability after 2 hrs; assay type: functional
Staphylococcus aureus [27] = experiment: Antimicrobial activity against methicillin-resistant Staphylococcus aureus ATCC 43300 in human monocyte-derived macrophages at 0.25 ug/ml assessed as bacterial viability after 4 hrs; assay type: functional
Staphylococcus aureus [28] = experiment: Extracellular killing of Staphylococcus aureus 8111 in MH-2 broth at 0.5 ug/ml assessed as suppression of number of viable bacteria after 24 hrs; assay type: functional, organism-based

Row | Compound | log10CFU/ml (Staphylococcus aureus [1]) | log10CFU/ml (Staphylococcus aureus [2]) | log10CFU/ml (Staphylococcus aureus [3]) | log10CFU/ml (Staphylococcus aureus [4]) | log10CFU/ml (Staphylococcus aureus [5]) | log10CFU/ml (Staphylococcus aureus [6]) | log10CFU/ml (Staphylococcus aureus [7]) | log10CFU/ml (Staphylococcus aureus [8]) | log10CFU/ml (Staphylococcus aureus [9]) | log10CFU/ml (Staphylococcus aureus [10]) | log10CFU/ml (Staphylococcus aureus [11]) | log10CFU/ml (Staphylococcus aureus [12]) | log10CFU/ml (Staphylococcus aureus [13]) | log10CFU/ml (Staphylococcus aureus [14]) | log10CFU/ml (Staphylococcus aureus [15]) | log10CFU/ml (Staphylococcus aureus [16]) | MIC (Staphylococcus aureus [17]) | MIC (Staphylococcus aureus [18]) | MIC (Staphylococcus aureus [19]) | log10CFU/ml (Staphylococcus aureus [20]) | also measured
1 | Cc1onc(-c2ccccc2)c1C(=O)N[C@@H]1C(=O)N2[C@@H]1SC(C)(C)[C@@H]2C(=O)O [OXACILLIN] | -2.05 | -2.7 | -0.91 | -1.72 | -0.94 | -1.32 | -2.7 | -1.27 | -1.75 | -3 | 0.21 | -0.05 | -1.47 | -0.48 | -1.51 | -1.54 | 16 mg/L (≈ 39.9 µM) | 0.5 mg/L (≈ 1.25 µM) | 64 mg/L (≈ 159 µM) | -0.85 | log10CFU/ml (Staphylococcus aureus [21]): -1.02; log10CFU/ml (Staphylococcus aureus [22]): -0.85; log10CFU/ml (Staphylococcus aureus [23]): -1.35; log10CFU/ml (Staphylococcus aureus [24]): -2.52; log10CFU/ml (Staphylococcus aureus [25]): -2.7
2 | GENTAMICIN |  |  |  |  |  |  |  |  |  |  |  |  |  |  |  |  | 128 mg/L | 1 mg/L | 2 mg/L |  | 
3 | CO[C@H]1/C=C/O[C@@]2(C)Oc3c(C)c(O)c4c(O)c(c(/C=N/N5CCN(C)CC5)c(O)c4c3C2=O)NC(=O)/C(C)=C\C=C\[C@H](C)[C@H](O)[C@@H](C)[C@@H](O)[C@@H](C)[C@H](OC(C)=O)[C@@H]1C [RIFAMPIN] |  |  |  |  |  |  |  |  |  |  |  |  |  |  |  |  | 0.015 mg/L (≈ 0.0182 µM) | 0.015 mg/L (≈ 0.0182 µM) | 0.015 mg/L (≈ 0.0182 µM) |  | 
4 | CN[C@H](CC(C)C)C(=O)N[C@H]1C(=O)N[C@@H](CC(N)=O)C(=O)N[C@H]2C(=O)N[C@H]3C(=O)N[C@H](C(=O)N[C@H](C(=O)O)c4cc(O)cc(O)c4-c4cc3ccc4O)[C@H](O)c3ccc(c(Cl)c3)Oc3cc2cc(c3O[C@@H]2O[C@H](CO)[C@@H](O)[C@H](O)[C@H]2O[C@H]2C[C@](C)(N)[C@H](O)[C@H](C)O2)Oc2ccc(cc2Cl)[C@H]1O [VANCOMYCIN] | -1.07 | -0.46 | -0.85 | -1.14 | -0.38 | -0.88 | -1.6 | -0.51 | -0.84 | -1.62 | 0.98 | 2.14 | 2.17 | 0.51 | 1.85 | 2.17 |  |  |  | 0.6 | log10CFU/ml (Staphylococcus aureus [26]): -0.86; log10CFU/ml (Staphylococcus aureus [27]): 1.58; log10CFU/ml (Staphylococcus aureus [21]): 2.47; log10CFU/ml (Staphylococcus aureus [22]): -0.39; log10CFU/ml (Staphylococcus aureus [23]): 0.03; log10CFU/ml (Staphylococcus aureus [24]): 2.23; log10CFU/ml (Staphylococcus aureus [25]): -0.85
5 | CCCCCCCCCC(=O)N[C@@H](Cc1c[nH]c2ccccc12)C(=O)N[C@H](CC(N)=O)C(=O)N[C@@H](CC(=O)O)C(=O)N[C@@H]1C(=O)NCC(=O)N[C@@H](CCCN)C(=O)N[C@@H](CC(=O)O)C(=O)N[C@H](C)C(=O)N[C@@H](CC(=O)O)C(=O)NCC(=O)N[C@H](CO)C(=O)N[C@@H]([C@H](C)CC(=O)O)C(=O)N[C@@H](CC(=O)c2ccccc2N)C(=O)O[C@@H]1C | -1.75 | -0.32 | -2 | -2.05 | -1.35 | -1.48 | -0.83 | -1.52 | -1.8 | -1.06 | 0.57 | 1.84 | 2.02 | -0.59 | 0.76 | 2 | 0.5 mg/L (≈ 0.309 µM) | 0.5 mg/L (≈ 0.309 µM) | 0.5 mg/L (≈ 0.309 µM) | 0.14 | log10CFU/ml (Staphylococcus aureus [26]): -1.7; log10CFU/ml (Staphylococcus aureus [27]): 1.27; log10CFU/ml (Staphylococcus aureus [21]): 2.1; log10CFU/ml (Staphylococcus aureus [23]): 0; log10CFU/ml (Staphylococcus aureus [24]): 1.93; log10CFU/ml (Staphylococcus aureus [25]): -0.52; Activity (Staphylococcus aureus [28]): Active
